According to ChEMBL document CHEMBL1156106 (J Med Chem, 2009):

Legend:
[1] = system: Rattus norvegicus; assay: Effect on behavioural activity in ip dosed rat assessed as cocaine-induced lever response pretreated with cocaine by drug-discrimination studies; assay type: functional
[2] = system: Rattus norvegicus; assay: Effect on behavioural activity in rat assessed as cocaine-induced lever response at 5 mg/kg, po pretreated with cocaine for 45 mins by drug-discrimination studies; assay type: functional
[3] = system: Rattus norvegicus; assay: Effect on behavioural activity in rat assessed as cocaine-induced lever response at 5 mg/kg, po pretreated with cocaine for 90 mins by drug-discrimination studies; assay type: functional
[4] = system: Rattus norvegicus; assay: Effect on behavioural activity in rat assessed as cocaine-induced lever response at 5 mg/kg, po pretreated with cocaine for 180 mins by drug-discrimination studies; assay type: functional
[5] = system: Rattus norvegicus; assay: Effect on behavioural activity in rat assessed as cocaine-induced lever response at 5 mg/kg, po pretreated with cocaine for 360 mins by drug-discrimination studies; assay type: functional
[6] = system: Rattus norvegicus; assay: Effect on behavioural activity in rat assessed as cocaine-induced lever response at 10 mg/kg, po pretreated with cocaine for 45 mins by drug-discrimination studies; assay type: functional
[7] = system: Rattus norvegicus; assay: Effect on behavioural activity in rat assessed as cocaine-induced lever response at 10 mg/kg, po pretreated with cocaine for 90 mins by drug-discrimination studies; assay type: functional
[8] = system: Rattus norvegicus; assay: Effect on behavioural activity in rat assessed as cocaine-induced lever response at 10 mg/kg, po pretreated with cocaine for 180 mins by drug-discrimination studies; assay type: functional
[9] = system: Rattus norvegicus; assay: Effect on behavioural activity in rat assessed as cocaine-induced lever response at 10 mg/kg, po pretreated with cocaine for 360 mins by drug-discrimination studies; assay type: functional
[10] = system: Rattus norvegicus; assay: Effect on behavioural activity in rat assessed as cocaine-induced lever response at 25 mg/kg, po pretreated with cocaine for 45 mins by drug-discrimination studies; assay type: functional
[11] = system: Rattus norvegicus; assay: Effect on behavioural activity in rat assessed as cocaine-induced lever response at 25 mg/kg, po pretreated with cocaine for 90 mins by drug-discrimination studies; assay type: functional
[12] = system: Rattus norvegicus; assay: Effect on behavioural activity in rat assessed as cocaine-induced lever response at 25 mg/kg, po pretreated with cocaine for 180 mins by drug-discrimination studies; assay type: functional
[13] = system: Rattus norvegicus; assay: Effect on behavioural activity in rat assessed as cocaine-induced lever response at 25 mg/kg, po pretreated with cocaine for 360 mins by drug-discrimination studies; assay type: functional
[14] = system: Rattus norvegicus; assay: Effect on behavioural activity in rat assessed as cocaine-induced lever response at 50 mg/kg, po pretreated with cocaine for 45 mins by drug-discrimination studies; assay type: functional
[15] = system: Rattus norvegicus; assay: Effect on behavioural activity in rat assessed as cocaine-induced lever response at 50 mg/kg, po pretreated with cocaine for 90 mins by drug-discrimination studies; assay type: functional
[16] = system: Rattus norvegicus; assay: Effect on behavioural activity in rat assessed as cocaine-induced lever response at 50 mg/kg, po pretreated with cocaine for 180 mins by drug-discrimination studies; assay type: functional
[17] = system: Rattus norvegicus; assay: Effect on behavioural activity in rat assessed as cocaine-induced lever response at 50 mg/kg, po pretreated with cocaine for 360 mins by drug-discrimination studies; assay type: functional
[18] = biological target: Sodium-dependent serotonin transporter (Homo sapiens, UniProt P31645); assay: biochemical; assay type: cell-based, HEK293
[19] = system: Mus musculus; assay: Antidepressant activity in ip dosed mouse assessed as stimulation of locomotor activity; assay type: functional
[20] = system: Mus musculus; assay: Antidepressant activity in ip dosed mouse assessed as stimulation of locomotor activity relative to cocaine; assay type: functional
[21] = system: Mus musculus; assay: Antidepressant activity in ip dosed mouse assessed as time to reach peak stimulation of locomotor activity; assay type: functional
[22] = system: Mus musculus; assay: Antidepressant activity in ip dosed mouse assessed as duration of locomotor activity; assay type: functional
[23] = system: Rattus norvegicus; assay: Effect on behavioural activity in po dosed rat assessed as cocaine-induced lever response pretreated with cocaine by drug-discrimination studies; assay type: functional
[24] = system: Rattus norvegicus; assay: Effect on behavioural activity in rat assessed as cocaine-induced lever response at 2.5 mg/kg, ip pretreated with cocaine for 30 mins by drug-discrimination studies; assay type: functional; details: route intraperitoneal
[25] = system: Rattus norvegicus; assay: Effect on behavioural activity in rat assessed as cocaine-induced lever response at 5 mg/kg, ip pretreated with cocaine for 30 mins by drug-discrimination studies; assay type: functional; details: route intraperitoneal
[26] = system: Rattus norvegicus; assay: Effect on behavioural activity in rat assessed as cocaine-induced lever response at 10 mg/kg, ip pretreated with cocaine for 30 mins by drug-discrimination studies; assay type: functional; details: route intraperitoneal
[27] = system: Rattus norvegicus; assay: Effect on behavioural activity in rat assessed as cocaine-induced lever response at 25 mg/kg, ip pretreated with cocaine for 30 mins by drug-discrimination studies; assay type: functional; details: route intraperitoneal
[28] = system: Rattus norvegicus; assay: Effect on behavioural activity in rat assessed as cocaine-induced lever response at 2.5 mg/kg, po pretreated with cocaine for 45 mins by drug-discrimination studies; assay type: functional
[29] = system: Rattus norvegicus; assay: Effect on behavioural activity in rat assessed as cocaine-induced lever response at 2.5 mg/kg, po pretreated with cocaine for 90 mins by drug-discrimination studies; assay type: functional
[30] = system: Rattus norvegicus; assay: Effect on behavioural activity in rat assessed as cocaine-induced lever response at 2.5 mg/kg, po pretreated with cocaine for 180 mins by drug-discrimination studies; assay type: functional
[31] = system: Rattus norvegicus; assay: Effect on behavioural activity in rat assessed as cocaine-induced lever response at 2.5 mg/kg, po pretreated with cocaine for 360 mins by drug-discrimination studies; assay type: functional
[32] = system: Rattus norvegicus; assay: Effect on behavioural activity in rat assessed as cocaine-induced lever response at 2.5 mg/kg, ip pretreated with cocaine for 15 mins by drug-discrimination studies; assay type: functional; details: route intraperitoneal
[33] = system: Rattus norvegicus; assay: Effect on behavioural activity in rat assessed as cocaine-induced lever response at 5 mg/kg, ip pretreated with cocaine for 15 mins by drug-discrimination studies; assay type: functional; details: route intraperitoneal
[34] = system: Rattus norvegicus; assay: Effect on behavioural activity in rat assessed as cocaine-induced lever response at 10 mg/kg, ip pretreated with cocaine for 15 mins by drug-discrimination studies; assay type: functional; details: route intraperitoneal
[35] = system: Rattus norvegicus; assay: Effect on behavioural activity in rat assessed as cocaine-induced lever response at 25 mg/kg, ip pretreated with cocaine for 15 mins by drug-discrimination studies; assay type: functional; details: route intraperitoneal
[36] = biological target: Sodium-dependent dopamine transporter (Homo sapiens, UniProt Q01959); assay: Displacement of [125I]RTI55 from cloned human DAT expressed in HEK293 cells; assay type: cell-based
[37] = biological target: Sodium-dependent noradrenaline transporter (Homo sapiens, UniProt P23975); assay: Displacement of [125I]RTI55 from cloned human NET expressed in HEK293 cells; assay type: cell-based
[38] = system: Rattus norvegicus; assay: Effect on behavioural activity in rat assessed as cocaine-induced lever response at 100 mg/kg, po pretreated with cocaine for 45 mins by drug-discrimination studies; assay type: functional
[39] = system: Rattus norvegicus; assay: Effect on behavioural activity in rat assessed as cocaine-induced lever response at 100 mg/kg, po pretreated with cocaine for 90 mins by drug-discrimination studies; assay type: functional
[40] = system: Rattus norvegicus; assay: Effect on behavioural activity in rat assessed as cocaine-induced lever response at 100 mg/kg, po pretreated with cocaine for 180 mins by drug-discrimination studies; assay type: functional
[41] = system: Rattus norvegicus; assay: Effect on behavioural activity in rat assessed as cocaine-induced lever response at 100 mg/kg, po pretreated with cocaine for 360 mins by drug-discrimination studies; assay type: functional

Sodium-dependent noradrenaline transporter, sequence (P23975 whole entry): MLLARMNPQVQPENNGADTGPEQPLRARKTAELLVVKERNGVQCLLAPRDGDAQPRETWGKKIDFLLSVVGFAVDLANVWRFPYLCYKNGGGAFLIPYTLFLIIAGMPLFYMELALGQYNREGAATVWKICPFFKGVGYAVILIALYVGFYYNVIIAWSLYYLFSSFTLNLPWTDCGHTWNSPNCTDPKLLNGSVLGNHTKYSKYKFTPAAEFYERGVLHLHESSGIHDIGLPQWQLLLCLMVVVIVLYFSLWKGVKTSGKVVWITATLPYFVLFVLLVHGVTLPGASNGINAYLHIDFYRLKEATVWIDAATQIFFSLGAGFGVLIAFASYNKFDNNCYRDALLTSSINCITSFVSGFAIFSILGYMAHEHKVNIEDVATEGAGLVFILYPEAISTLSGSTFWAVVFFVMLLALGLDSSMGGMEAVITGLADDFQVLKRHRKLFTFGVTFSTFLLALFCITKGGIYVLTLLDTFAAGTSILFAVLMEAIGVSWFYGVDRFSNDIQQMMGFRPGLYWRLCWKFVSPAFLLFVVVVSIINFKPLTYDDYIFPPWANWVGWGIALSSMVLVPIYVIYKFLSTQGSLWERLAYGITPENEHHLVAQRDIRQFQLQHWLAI
Sodium-dependent dopamine transporter, sequence (Q01959 whole entry): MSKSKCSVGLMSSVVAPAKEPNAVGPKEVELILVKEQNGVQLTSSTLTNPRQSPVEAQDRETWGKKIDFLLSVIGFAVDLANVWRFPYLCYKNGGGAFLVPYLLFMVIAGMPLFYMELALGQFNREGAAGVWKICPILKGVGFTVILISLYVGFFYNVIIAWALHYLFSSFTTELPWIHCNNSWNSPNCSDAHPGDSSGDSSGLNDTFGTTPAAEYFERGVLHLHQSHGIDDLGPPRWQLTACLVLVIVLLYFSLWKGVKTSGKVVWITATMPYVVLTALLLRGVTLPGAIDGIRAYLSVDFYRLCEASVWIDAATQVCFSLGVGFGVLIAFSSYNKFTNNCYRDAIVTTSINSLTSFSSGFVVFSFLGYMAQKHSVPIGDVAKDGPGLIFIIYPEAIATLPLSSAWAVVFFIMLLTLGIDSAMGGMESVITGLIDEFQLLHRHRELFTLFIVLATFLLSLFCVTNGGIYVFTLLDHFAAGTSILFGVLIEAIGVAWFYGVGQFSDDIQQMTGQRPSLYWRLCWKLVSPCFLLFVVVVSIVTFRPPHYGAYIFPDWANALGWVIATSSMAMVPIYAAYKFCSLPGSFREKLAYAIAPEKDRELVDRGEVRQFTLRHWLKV
Sodium-dependent serotonin transporter, sequence (P31645 whole entry): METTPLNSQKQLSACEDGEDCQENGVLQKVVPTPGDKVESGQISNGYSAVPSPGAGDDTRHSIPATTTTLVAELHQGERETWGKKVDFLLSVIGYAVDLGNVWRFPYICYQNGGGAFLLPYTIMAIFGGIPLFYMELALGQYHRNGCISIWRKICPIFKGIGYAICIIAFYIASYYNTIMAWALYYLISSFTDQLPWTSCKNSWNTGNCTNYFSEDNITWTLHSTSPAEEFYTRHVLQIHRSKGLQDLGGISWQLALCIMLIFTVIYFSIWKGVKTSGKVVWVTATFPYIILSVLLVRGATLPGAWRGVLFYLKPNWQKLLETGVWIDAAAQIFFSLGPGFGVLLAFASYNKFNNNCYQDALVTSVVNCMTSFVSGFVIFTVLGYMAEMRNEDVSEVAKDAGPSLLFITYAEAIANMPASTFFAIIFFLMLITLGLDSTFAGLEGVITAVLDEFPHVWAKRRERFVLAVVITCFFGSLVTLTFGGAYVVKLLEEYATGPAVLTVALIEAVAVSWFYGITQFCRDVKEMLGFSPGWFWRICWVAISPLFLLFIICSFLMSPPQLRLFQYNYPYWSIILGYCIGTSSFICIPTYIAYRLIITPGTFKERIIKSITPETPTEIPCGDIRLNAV

SMILES	ED50 [1] [mg/kg]	Activity [2] [%]	Activity [3] [%]	Activity [4] [%]	Activity [5] [%]	Activity [6] [%]	Activity [7] [%]	Activity [8] [%]	Activity [9] [%]	Activity [10] [%]	Ki [18] [µM]	ED50 [19] [mg/kg]	Activity [20] [%]	Time to peak locomotor stimulation [21] [min]	Time [22] [min]	ED50 [23] [mg/kg]	Activity [32] [%]	Activity [33] [%]	Activity [35] [%]	Ki [37] [µM]	other results
CCCCC(NC(C)(C)C)C(=O)c1cccc(Cl)c1 (stereo not drawn)	10	17	0	26	0	0	0	29	0	0	> 10	10.2	136	0	40	46.9					Activity [11]: 0%; Activity [12]: 0%; Activity [13]: 0%; Activity [14]: 83%; Activity [15]: 17%; Activity [16]: 17%; Activity [17]: 0%; Activity [24]: 0%; Activity [25]: 17.2%; Activity [26]: 66.6%; Activity [27]: 100%
CC(C(=O)c1cccc(Cl)c1)N(C)C (stereo not drawn)	5.9	38		0	0		100	33	18		> 10	9.3	64	90	180	5.3	0	83.3	100		Activity [28]: 19%; Activity [29]: 0%; Activity [30]: 33%; Activity [31]: 0%; Activity [34]: 83.2%
CC(C)(C)NC1CCc2ccc(Cl)cc2C1=O (stereo not drawn)											> 10	2.6								> 10	Ki [36]: > 10 µM
CC(NC(C)(C)C)C(=O)c1cccs1 (stereo not drawn)											> 10									> 10	Ki [36]: > 10 µM
CC(CNC(C)(C)C)C(=O)c1cccc(Cl)c1 (stereo not drawn)											> 10									> 10	Ki [36]: > 10 µM
CCC(NC(C)(C)C)C(=O)c1cccc(Cl)c1 (stereo not drawn)	12.2											18.6	62	0	360		0.6	33.4	100		
Cc1cccc(C(=O)C(C)NC(C)(C)C)c1 (stereo not drawn)											> 10		76	10	50					> 10	
CC(NC(C)(C)C)C(=O)c1ccccc1 (stereo not drawn)	1	0	0	33	0	0	0	3	0	51	> 10	11.2	95	0	120	25.2	16	32.8	83.4		Activity [28]: 6%; Activity [29]: 1%; Activity [30]: 0%; Activity [31]: 0%; Activity [11]: 33%; Activity [12]: 20%; Activity [13]: 34%; Activity [14]: 83%; Activity [15]: 33%; Activity [16]: 50%; Activity [17]: 4%; Activity [34]: 83.3%
CC(NC(C)(C)C)C(=O)c1cccc(F)c1 (stereo not drawn)	11.6	17	0	0	0	17	0	33		49	> 10	17.5	80	0	150	25.3	17.6	0	100	> 10	Activity [11]: 16%; Activity [12]: 0%; Activity [13]: 0%; Activity [14]: 67%; Activity [15]: 33%; Activity [16]: 18%; Activity [17]: 0%; Activity [38]: 95%; Activity [39]: 75%; Activity [40]: 83%; Activity [34]: 50.2%; Activity [41]: 50%
